Measurements taken from the NIST ThermoML archive (doi:10.1021/je1011828).

Tests used:
[1] = Liquid; for thermal conductivity: 101.33 kPa, Hot wire method; for viscosity / mass density: 101 kPa; for viscosity: Capillary tube (Ostwald / Ubbelohde) method; for mass density: Pycnometric method
[2] = wn = mass fraction of the nth substance listed; details: 101 kPa, Liquid; for viscosity: Capillary tube (Ostwald / Ubbelohde) method; for thermal conductivity: Hot wire method; for mass density: Pycnometric method

CCOC(F)(F)C(F)(F)C(F)(F)C(F)(F)F [1-ethoxy-1,1,2,2,3,3,4,4,4-nonafluorobutane]
[1]
Details | mass density [kg/m3] | thermal conductivity [W/m/K] | viscosity [mPa·s]
278.8 K | – | 0.0712 | –
297.8 K | 1417 | – | 0.6065
298.2 K | 1417 | 0.0662 | 0.6065
300.6 K | – | 0.0644 | –
314.1 K | – | 0.0616 | –
328.3 K | – | 0.059 | –
344.1 K | – | 0.0563 | –

CCOC(F)(F)C(F)(F)C(F)(F)C(F)(F)F [1-ethoxy-1,1,2,2,3,3,4,4,4-nonafluorobutane] + CCCCOCC
[2], 298.2 K
Details | mass density [kg/m3] | thermal conductivity [W/m/K] | viscosity [mPa·s]
w2 = 0 | 1417 | 0.0662 | 0.6065
w2 = 0.1 | 1293.4 | 0.0664 | 0.5458
w2 = 0.2 | 1187.4 | 0.0707 | 0.5042
w2 = 0.4 | 1024.9 | 0.0774 | 0.4379
w2 = 0.6 | 907.4 | 0.0921 | 0.4077
w2 = 0.8 | 813.7 | 0.1085 | 0.397

CCOC(F)(F)C(F)(F)C(F)(F)C(F)(F)F [1-ethoxy-1,1,2,2,3,3,4,4,4-nonafluorobutane] + CO
[2], 297.8 K
Details | mass density [kg/m3] | thermal conductivity [W/m/K] | viscosity [mPa·s]
w2 = 0 | 1417 | – | 0.6065
w2 = 0.1 | 1357 | 0.0729 | 0.6034
w2 = 0.2 | 1294.4 | 0.0794 | 0.6802
w2 = 0.4 | 1058.4 | 0.0948 | 0.6089
w2 = 0.6 | 946.5 | 0.1108 | 0.571
w2 = 0.8 | 852.6 | 0.1326 | 0.5495

CCCCOCC [butyl ethyl ether]
[1]
Details | mass density [kg/m3] | thermal conductivity [W/m/K] | viscosity [mPa·s]
298.15 K | – | 0.1258 | –
298.2 K | 743 | – | 0.3868
299.62 K | – | 0.125 | –
312.17 K | – | 0.1229 | –
333.39 K | – | 0.1017 | –
354.63 K | – | 0.0949 | –

CCCCOCC [butyl ethyl ether] + CCOC(F)(F)C(F)(F)C(F)(F)C(F)(F)F
[2], 298.2 K, w1 = 1
Details | mass density [kg/m3] | thermal conductivity [W/m/K] | viscosity [mPa·s]
– | 743 | 0.1258 | 0.3868

CO [methanol]
[1], 297.8 K
Details | mass density [kg/m3] | viscosity [mPa·s]
– | 791.8 | 0.5463

CO [methanol] + CCOC(F)(F)C(F)(F)C(F)(F)C(F)(F)F
[2], 297.8 K, w1 = 1
Details | mass density [kg/m3] | viscosity [mPa·s]
– | 791.8 | 0.5463
